Data reported in patent publication US6271220A, “Anti-angiogenic agents” (Allergan Sales, Inc., priority 1999, dated 2001).

system: Purified bovine brain tubulin; experiment: in vitro tubulin polymerization assay (turbidimetric); type: biochemical; settings: GTP-initiated, 30 C, turbidity monitored for 15 minutes, read-out: 1C50, inhibitory effects on tubulin polymerization in vitro
Protocol: Anti-mitotic activity can be evaluated by testing the ability of a compound of the invention to inhibit tubulin polymerization and microtubule assembly in vitro. The tubulin/microtubule system is instrumental in the formation in the mitotic spindle, making it a prime target for anti-mitotic agents. In vitro tubulin polymerization assays are performed to serve as an estimate of the in vivo cytotoxic activity of designated compounds. Purified bovine brain tubulin (120 μl, 4 mg/ml), 240 μl PME (100 mm piperazine-n, n-bis(2-ethane-sulfonic acid i.e., pipes, ph 6.9, 1 mm MgSO4, 2 mm ethyleneglycol-bis-(β-aminoethyl ether) N, N, N', N'-tetraacetic acid i.e. EGTA and 40 μl dimethyl sulfoxide i.e. DMSO, are combined and transferred to a 1 ml quartz cuvet. Polymerization is initiated by the addition of guanosine triphosphate i.e. GTP, (8 μl, 50 mM) and monitored turbidometrically in a Varian DMS 90 UV-Vis spectrophotometer in a temperature controlled cuvet holder at 30_C. Tubidity increases with increasing tubulin polymerization, giving a false absorbence reading and, over time, a polymerization curve. […] 200 μM solutions (in DMSO) of compounds to be assayed were prepared, and substituted for portions of the DMSO in the polymerization mixture.
The method is given above in-vitro assay for anti-miotic activity.

Compound	IC50 [µM]
4 Chloro-A-Homo-4,5(10)-estradien-2,17β-diol-3-one [Compound 11b]	9.8
C[C@]12CC[C@@H]3c4cccc(=O)cc4CC[C@H]3[C@@H]1CC[C@@H]2O [Compound 3, A-Homo-1(10), 2,4a-estratrien-17β-ol-4-one]	7.2
C[C@]12CC[C@@H]3c4ccc(Br)c(=O)cc4CC[C@H]3[C@@H]1CC[C@@H]2O [Compound 8a, 3-Bromo-A-Homo-1(10), 2,4a-estratrien-17β-ol-4-one]	2.9
C[C@]12CC[C@@H]3c4ccc(Cl)c(=O)cc4CC[C@H]3[C@@H]1CC[C@@H]2O [Compound 8b, 3-Chloro -A-Homo-1(10), 2,4a-estratrien-17β ol-4-one]	2.8
COc1cc2c(ccc1=O)[C@H]1CC[C@]3(C)[C@@H](O)CC[C@H]3[C@@H]1CC2 [Compound 11c, 4-Methoxy-A-Homo-1,4,5(10)-estratrien-17β-ol-3-one]	2.1
CCOc1cc2c(ccc1=O)[C@H]1CC[C@]3(C)[C@@H](O)CC[C@H]3[C@@H]1CC2 [Compound 11d, 3-Ethoxy-A-Homo-1,4,5(10)-estratrien-17β-ol-3-one]	5.9
C[C@]12CC[C@@H]3c4ccc(N)c(=O)cc4CC[C@H]3[C@@H]1CC[C@@H]2O [Compound 14, 3-Amino-A-homo-1(10), 2,4a-estratrien-17β-ol-4-one]	14.4
C[C@]12CC[C@@H]3c4ccc(O)c(=O)cc4CC[C@H]3[C@@H]1CC[C@@H]2O [Compound 16b, A-homo-1(10), 2,4a-estratrien-3,17β-diol-3-one]	22.8
C[C@]12CC[C@@H]3c4ccc([N+](=O)[O-])c(=O)cc4CC[C@H]3[C@@H]1CC[C@@H]2O [Compound 17a, 3-Nitro-A-homo-1(10), 2,4a-estratrien-17β-ol-4-one]	52
C=Cc1ccc2c(cc1=O)CC[C@@H]1[C@@H]2CC[C@]2(C)[C@@H](O)CC[C@@H]12 [Compound 18, 3-Vinyl-A-homo-1(10), 2,4a-estratrien-17β-ol-4-one]	14.2
CNc1ccc2c(cc1=O)CC[C@@H]1[C@@H]2CC[C@]2(C)[C@@H](O)CC[C@@H]12 [Compound 19a, 3-Methylamino-A-homo-1(10), 2,4a-estratrien-17β-ol-4-one]	60.7
CN(C)c1ccc2c(cc1=O)CC[C@@H]1[C@@H]2CC[C@]2(C)[C@@H](O)CC[C@@H]12 [Compound 19b, 3-Dimethylamino-A-homo-1(10), 2,4a-estratrien-17β-ol-4-one]	14.3
CNc1cc2c(ccc1=O)[C@H]1CC[C@]3(C)[C@@H](O)CC[C@H]3[C@@H]1CC2 [Compound 19c, 4-Methylamino-A-homo-1,4,5(10)-estratrien-17β-ol-3-one]	19.4
CN(C)c1cc2c(ccc1=O)[C@H]1CC[C@]3(C)[C@@H](O)CC[C@H]3[C@@H]1CC2 [Compound 19d, 4-Dimethylamino-A-homo-1,4,5(10)-estratrien-17β-ol-3-one]	46.8

Further lines, results first:

IC50 [µM]	Compound
4.4	C[C@]12CC[C@@H]3c4ccc(=O)ccc4CC[C@H]3[C@@H]1CC[C@@H]2O [Compound 6, A-Homo-1,4,5(10)-estratrien-17β-ol-3-one]
8.1	COc1ccc2c(cc1=O)CC[C@@H]1[C@@H]2CC[C@]2(C)[C@@H](O)CC[C@@H]12 [Compound 8c, 3-Methoxy-A-Homo-1(10), 2,4a-estratrien-17β-ol-4-one]
27.5	COc1ccc2c(cc1=O)[C@H]1CC[C@]3(C)[C@@H](O)CC[C@H]3[C@@H]1CC2 [Compound 12, 3-Methoxy-A-Homo-1(10), 3,4a-estratrien-17β-ol-2-one]
29.8	COc1cc2c(ccc1=O)CC[C@@H]1[C@@H]2CC[C@]2(C)[C@@H](O)CC[C@@H]12 [Compound 13, 2-Methoxy-A-Homo-1,4,5(10)-estratrien-17β-ol-3-one]
16.5	C[C@]12CC[C@@H]3c4cc(N)c(=O)ccc4CC[C@H]3[C@@H]1CC[C@@H]2O [Compound 15a, 2-Amino-A-homo-1,4,5(10)-estratrien-17β-ol-3-one]
9.2	C[C@]12CC[C@@H]3c4ccc(=O)c(N)cc4CC[C@H]3[C@@H]1CC[C@@H]2O [Compound 15b, 4-Amino-A-homo-1,4,5(10)-estratrien-17β-ol-3-one]
14.9	C[C@]12CC[C@@H]3c4cc(O)c(=O)ccc4CC[C@H]3[C@@H]1CC[C@@H]2O [Compound 16a, A-homo-1,4,5(10)-estratrien-2, 17β-diol-3-one]
